Experimental data reported in ChEMBL document CHEMBL5236628 (J Med Chem, 2022).
Converted amounts (≈) assume the structure as drawn. The source made the active and inactive calls. No cut-off for these calls is given here.

How the values were obtained:
[1] = system: Plasmodium berghei; assay: Antiplasmodial activity against Plasmodium berghei ANKA infected in mouse assessed as mean survival days at 50 mg/kg, po administered for 4 days and measured upto 30 days; type: functional; conditions: time 4 day
[2] = system: HepG2; assay: Cytotoxicity against human HepG2 cells after 48 hrs by CellTiter Glo assay; type: toxicity, cell-based; conditions: hepg2, 48 h
[3] = system: Plasmodium falciparum; assay: Antiplasmodial activity against early stage (I to III) Plasmodium falciparum incubated for 48 hrs by bioluminescence assay; type: functional, organism-based
[4] = system: Plasmodium berghei; assay: Antiplasmodial activity against Plasmodium berghei ANKA infected in mouse assessed as reduction in parasitemia at 50 mg/kg, po administered for 4 days; type: functional; parameters: scale not given: the % may be the effect or the level left; conditions: time 4 day
[5] = system: Plasmodium falciparum; assay: Antiplasmodial activity against multidrug resistant Plasmodium falciparum K1 incubated for 72 hrs by microplate reader assay; type: functional, organism-based; conditions: K1, 72 h
[6] = Cytotoxicity against CHO cells measured after 48 hrs by MTT assay; conditions: Chinese hamster
[7] = system: Plasmodium falciparum; assay: microbe, parasite or virus in culture; conditions: NF54, 72 h
[8] = system: Plasmodium berghei; assay: Antiplasmodial activity against liver stage Plasmodium berghei ANKA sporozoites expressing GFP infected in HepG2 cells pre-infected with cells for 1 hr prior to compound addition and measured after 48 hrs by flow cytometry analysis
[9] = Volume of distribution in mouse at 3 mg/kg, iv; type: ADME, organism-based; conditions: in vivo
[10] = Selectivity index, ratio of IC50 for Plasmodium falciparum NF54 to IC50 for CHO cells; conditions: hamster
[11] = Apparent half life in mouse at 3 mg/kg, iv; type: ADME, organism-based; conditions: in vivo, read-out: t1/2(app) (converted)
[12] = AUC(0 to infinity) in mouse at 50 mg/kg, po; type: ADME, organism-based; parameters: dose 50 mg/kg, route po; conditions: in vivo
[13] = Cmax in mouse at 10 mg/kg, po; type: ADME, organism-based; parameters: dose 10 mg/kg, route po; conditions: in vivo
[14] = Tmax in mouse at 10 mg/kg, po; type: ADME, organism-based; conditions: in vivo
[15] = Oral bioavailability in mouse at 10 mg/kg; type: ADME, organism-based; conditions: in vivo
[16] = Cmax in mouse at 50 mg/kg, po; type: ADME, organism-based; parameters: dose 50 mg/kg, route po; conditions: in vivo
[17] = Apparent half life in mouse at 50 mg/kg, po; type: ADME, organism-based; conditions: in vivo, read-out: t1/2(app) (converted)
[18] = AUC(0 to infinity) in mouse at 3 mg/kg, iv; type: ADME, organism-based; parameters: dose 3 mg/kg, route iv; conditions: in vivo
[19] = physchem; conditions: buffer, pH 7.4
[20] = Apparent half life in mouse at 10 mg/kg, po; type: ADME, organism-based; conditions: in vivo, read-out: t1/2(app) (converted)
[21] = Tmax in mouse at 50 mg/kg, po; type: ADME, organism-based; conditions: in vivo
[22] = AUC(0 to infinity) in mouse at 10 mg/kg, po; type: ADME, organism-based; parameters: dose 10 mg/kg, route po; conditions: in vivo
[23] = Intrinsic clearance in mouse at 3 mg/kg, iv; type: ADME, organism-based; conditions: in vivo
[24] = Oral bioavailability in mouse at 50 mg/kg; type: ADME, organism-based; conditions: in vivo
[25] = Drug accumulation in nucleus of human erythrocytes infected with chloroquine sensitive Plasmodium falciparum NF54 by live cell imaging analysis; type: ADME, subcellular; conditions: erythrocyte
[26] = Drug accumulation in hemozoin crystal of human erythrocytes infected with chloroquine sensitive Plasmodium falciparum NF54 by live cell imaging analysis; type: ADME, cell-based; conditions: erythrocyte
[27] = Drug accumulation in mitochondria of human erythrocytes infected with chloroquine sensitive Plasmodium falciparum NF54 by live cell imaging analysis; type: ADME; conditions: erythrocyte
[28] = system: Plasmodium falciparum; assay: Antiplasmodial activity against chloroquine sensitive Plasmodium falciparum NF54 infected in human erythrocytes incubated for 48 hrs followed by addition of [3H]-hypoxanthine and measured after 24 hrs by beta-plate liquid scintillation counting method; type: functional, organism-based
[29] = Drug accumulation in neutral lipid droplets of human erythrocytes infected with chloroquine sensitive Plasmodium falciparum NF54 by live cell imaging analysis; type: ADME, cell-based; conditions: erythrocyte
[30] = system: Plasmodium falciparum; assay: Antiplasmodial activity against multidrug resistant Plasmodium falciparum K1 infected in human erythrocytes incubated for 48 hrs followed by addition of [3H]-hypoxanthine and measured after 24 hrs by beta-plate liquid scintillation counting method; type: functional, organism-based
[31] = Drug accumulation in lysosomes of human erythrocytes infected with chloroquine sensitive Plasmodium falciparum NF54 by live cell imaging analysis; type: ADME, cell-based; conditions: erythrocyte
[32] = Drug accumulation in endoplasmic reticulum of human erythrocytes infected with chloroquine sensitive Plasmodium falciparum NF54 by live cell imaging analysis; type: ADME, subcellular; conditions: erythrocyte
[33] = system: Hemozoin; assay: Inhibition of Beta-hematin in Plasmodium falciparum NF54 assessed as hemozoin formation after 36 hrs by flow cytometry analysis
[34] = system: Plasmodium falciparum; assay: Antiplasmodial activity against Plasmodium falciparum assessed as reduction in parasite viability incubated for 72 hrs by LDH assay; type: functional, organism-based

| Structure (SMILES) | MSD [1] [days] | Activity [2] | Activity [4] [%] | IC50 [5] [nM] | IC50 at 48 h ([6]; cho) [nM] | IC50 [7] [nM] | Vd [9] [L/kg] | half-life [11] [h] | AUC [12] [µM/min] | Cmax [13] [nM] | Tmax [14] [h] | bioavailability [15] [%] | Cmax [16] [nM] | half-life [17] [h] | AUC [18] [µM/min] | solubility kinetic at 2 h [19] [µM] | half-life [20] [h] | Tmax [21] [h] | AUC [22] [µM/min] | CL [23] [mL/min/kg] | other results |
| --- | --- | --- | --- | --- | --- | --- | --- | --- | --- | --- | --- | --- | --- | --- | --- | --- | --- | --- | --- | --- | --- |
| Cn1c(NC2CCN(CCc3ccc(-c4nc(C(F)(F)F)no4)cc3)CC2)nc2ccccc21 | 9 | Non-Toxic | 90 | 48 | 3180 | 66 |  |  |  |  |  |  |  |  |  |  |  |  |  |  | IC50 [3]: 1670 nM; IC50 [8]: 210 nM |
| Cc1noc(-c2ccc(CCN3CCC(Nc4nc5ccccc5[nH]4)CC3)cc2)n1 |  |  | 40 | 176 |  | 55 | 13.6 | 11.6 | 5548 | 1000 | 1.5 | 29.3 | 5900 | 9.2 | 550 | 80 (≈ 32.2 µg/mL) | 10.3 | 3 | 535 | 16.6 | selectivity ratio [10]: 64.7; IC50 at 48 h ([6]; CHO cells): 3560 nM; bioavailability [24]: 61% |
| O=[N+]([O-])c1ccc(NCCn2c(NC3CCN(CCc4ccc(-c5nc(C(F)(F)F)no5)cc4)CC3)nc3ccccc32)c2nonc12 |  |  |  |  |  |  |  |  |  |  |  |  |  |  |  | 120 (≈ 79.5 µg/mL) |  |  |  |  | Drug uptake [25]: Not Active; Drug uptake [26]: Active; Drug uptake [27]: Active; IC50 [28]: 140 nM; Drug uptake [29]: Active; IC50 [30]: 370 nM; Drug uptake [31]: Active; Drug uptake [32]: Active |
| FC(F)(F)c1noc(-c2ccc(CCN3CCC(Nc4nc5ccccc5[nH]4)CC3)cc2)n1 | 14 | Non-Toxic |  |  | 1960 |  | 26.6 | 4.2 | 1429 | 300 | 0.7 | 15.6 | 1500 | 10.2 | 93.4 |  | 1.1 | 1.7 | 48 | 71.7 | inhibition [33]: inactive; bioavailability [24]: 93.3% |
| COc1ccc(CCN2CCC(Nc3nc4cc(Cl)c(Cl)cc4[nH]3)CC2)cc1 |  |  |  |  |  |  |  |  |  |  |  |  |  |  |  |  |  |  |  |  | IC50 [34]: 83 nM |
